Laboratory results from patent US9357776B2, “Method for producing pest control agent” (priority 2011, dated 2016).

Columns and labels:
[1] = tested on: Laodelphax striatellus; experiment: Test for control of Laodelphax striatellus, sensitive and resistant strains (rice soil drench); format: in vivo; conditions: three days after release
Description: (§1) Rice plant seedlings grown in a pot were treated by soil drench with a liquid agent prepared to be 10% acetone-water, and to contain a predetermined concentration of a compound of the present invention. Three days after the treatment, 10 sensitive or resistant strain of second instar larvae of Laodelphax striatellus were released on each of the rice plant seedlings. After that the rice plant seedlings were allowed to stand in a thermostatic chamber at 25° C. (16-hour light period and 8-hour dark period). […] The test was duplicated. Mortality rate (%)=[Number of dead insects/(Number of survived insects+Number of dead insects)]×100
Note that the pests tested were insects bred for generations in a room for a long period (sensitive strain), and insects collected in Kumamoto Prefecture in 2006, and bred for generations in a room (field-collected strain: resistant strain).

[2] = tested on: Aphis gossypii; experiment: Test for control of cotton aphid (leaf disk); format: in vivo; conditions: in Cucumis sativus, foliar, 72 h, read-out: Mortality rate, Aphis gossypii
Description: (§2) A leaf disk having a diameter of 2.0 cm was cut out from cucumber (Cucumis sativus L.) grown in a pot. Then, a liquid agent prepared to be 50% acetone-water (to which 0.05% Tween20 was added) and to contain 500 ppm of a compound represented by formula (I) was spread over the leaf disk. After the leaf disk was air dried, first instar larvae were released on the leaf disk. After that, the leaf disk was allowed to stand in a thermostatic chamber at 25° C. (16-hour light period and 8-hour dark period). […] The test was duplicated. Mortality rate (%)=[Number of dead insects/(Number of survived insects+Number of dead insects)]×100

[3] = tested on: crude enzyme extraction liquid of housefly (Musca domestica); experiment: In vitro metabolism test using crude enzyme extraction liquid of housefly; format: in vitro ADME; conditions: 25° C., 40 hours, LC/MS
Description: As described in Pest Management Science (2003), 59(3), 347-352, and Journal of Pesticide Science (2004), 29(2), 110-116, imidacloprid is known to be inactivated by oxidative metabolism, which is thought to be one of the mechanisms for the acquisition of the resistance. To investigate effects on insects acquiring such resistance, the following experiment was carried out.
To adult housefly (Musca domestica) (0.645 g), 10 ml of a potassium phosphate buffer (pH 7.4, containing 1 mM EDTA) was added, and the adult housefly was sufficiently ground with Physcotron (Nichion Irika Kikai Seisakusho). After that, the ground material was centrifuged under conditions of 10,000 g and 15 minutes. The obtained supernatant was further centrifuged under conditions of 100,000 g and 60 minutes. Thus, precipitates were obtained. The precipitates were dissolved in 1 ml of a potassium phosphate buffer, and this solution was used as a crude enzyme solution. The enzyme extraction operations were all conducted on ice or under a condition of 4° C.
Reagents were mixed with each other at the following ratio in a tube having a capacity of 1.5 mL, and allowed to react with each other at 25° C. for 40 hours. After the reaction, 1 mL of acetone was added to the mixture, followed by stirring. Then, the formed precipitates were removed by centrifugation at 12000 rpm for 5 minutes. […]

[4] = tested on: Nilaparvata lugens; experiment: Test for control of Nilaparvata lugens, sensitive and resistant strains (rice soil drench); format: in vivo; conditions: three days after release
Description: as §1, with “Nilaparvata lugens” for “Laodelphax striatellus”, “that,” for “that”
Note that the pests tested were as follows: Insects bred for generations in a room for a long period (sensitive strain), (I) Insects collected in Kumamoto Prefecture in 2007, and bred for generations in a room (field-collected strain: resistant strain), or (II) Insects collected in Fukuoka Prefecture in 2005, and bred for generations in a room (field-collected strain).

[5] = tested on: Plutella xylostella; experiment: Test for control of diamondback moth (leaf disk); format: in vivo; conditions: in Brassica oleracea, foliar, 72 h, read-out: Mortality rate, Plutella xylostella
Description: as §2, with “5.0” for “2.0”, “cabbage” for “cucumber (Cucumis sativus L.)”, “second” for “first”

[6] = tested on: Haemaphysalis longicornis; experiment: Test for control of Haemaphysalis longicornis (dry film in glass vial); format: in vivo; conditions: 24 h, read-out: Mortality rate
Description: Into a glass vial having a capacity of 4 mL, 30 μL of an acetone solution containing 200 ppm or 10 ppm of a compound of the present invention was introduced. The vial was placed on a shaker, and air dried, while being rotated. Thus, a dry film of the compound was formed on the inner wall of the vial. After the vial was dried for 24 hours or longer, 10 larvae of Haemaphysalis longicornis were released in the vial, and then the vial was capped. The vial was allowed to stand in a thermostatic chamber under conditions of 25° C., a humidity of 85%, and total darkness. […] The test was duplicated. Mortality rate (%)=[Number of dead insects/(Number of survived insects+Number of dead insects)]×100

[7] = tested on: Laodelphax striatellus; experiment: Test for control of Laodelphax striatellus (wheat seedling root treatment); format: in vivo; conditions: 96 h, read-out: Mortality rate, Laodelphax striatellus
Description: Roots of wheat seedlings 48 hours after seeding were each treated with 200 μL of a liquid agent prepared to be 10% acetone-water, and to contain 100 ppm of a compound represented by formula (I). The agent was absorbed through the roots for 72 hours, and then 10 second instar larvae of Laodelphax striatellus were released on each wheat seedling. After that, the wheat seedlings were allowed to stand in a thermostatic chamber at 25° C. (16-hour light period and 8-hour dark period). […] The test was duplicated.

[8] = tested on: Haemaphysalis longicornis; experiment: Effect of controlling Haemaphysalis longicornis on body surface of mouse; format: in vivo; conditions: mouse (ICR, male), 20 μL of 1000-fold diluted drop preparation (48% by weight Compound 1 in ethanol), three days after release
Description: Hair on the back of a mouse (ICR, male, 5-weeks old) in a region having a diameter of approximately 2 cm was shaved, and a 15-mL polystyrene conical tube cut to have a height of approximately 1.5 cm was bonded to this region with an instant adhesive.
Then, 20 μL of a 1000-fold diluted liquid of a pest control agent prepared according to the following formulation was added dropwise onto the body surface of the mouse within the bonded tube. After sufficient drying, […] larvae of Haemaphysalis longicornis were released into the tube, and the tube was capped.
Formulation [Drop Preparation]
The components were uniformly mixed with each other, and a drop preparation was obtained. blood-sucking inhibition rate (%)=100−[Number of […]/(Number of survived ticks+Number of dead ticks)]×100

[9] = 0.005 mg/seedling, all the strains
[10] = 0.01 mg/seedling, sensitive strain
[11] = 0.01 mg/seedling, strain (II) (Fukuoka 2005, field-collected)
[12] = 0.01 mg/seedling, field-collected strain (Kumamoto 2006, resistant)

Compound	mortality at 500 ppm [2]	mortality at 500 ppm [5]	mortality at 100 ppm [7]	also measured
O=C(N=c1ccccn1Cc1ccc(Cl)nc1)C(F)(F)F [Compound 1, N-[1-((6-Chloropyridin-3-yl)methyl)pyridin-2(1H)-ylidene]-2,2,2-trifluoroacetamide]	100%	100%	100%	Mortality rate [1, 9]: ≥ 90%; total area percentage of metabolites [3]: 0.08; Mortality rate [4, 9]: ≥ 90%; Mortality rate ([4]; 0.05 mg/seedling, all the strains): 100%; mortality at 10 ppm [6]: ≥ 80%; mortality at 200 ppm [6]: ≥ 80%; blood-sucking inhibition rate [8]: 91%
O=C(N=c1ccccn1Cc1cnc(Cl)c(F)c1)C(F)(F)F [Compound 2, N-[1-((6-Chloro-5-fluoropyridin-3-yl)methyl)pyridin-2(1H)-ylidene]-2,2,2-trifluoroacetamide]	100%	100%	100%	Mortality rate [4, 10]: 72%; Mortality rate [4, 11]: 70%
O=C(N=c1ccccn1Cc1ccc(Br)nc1)C(F)(F)F [Compound 3, N-[1-((6-Bromopyridin-3-yl)methyl)pyridin-2(1H)-ylidene]-2,2,2-trifluoroacetamide]	100%	100%	100%	Mortality rate [1, 12]: 90%; Mortality rate [1, 10]: 100%
O=C(N=c1ccccn1Cc1ccc(Cl)nc1)C(F)(F)Cl [Compound 4, 2-chloro-N-[1-((6-Chloropyridin-3-yl)methyl)pyridin-2(1H)-ylidene]-2,2-difluoroacetamide]	100%	100%	100%	
O=C(N=c1ccccn1Cc1ccc(Cl)nc1)C(Cl)(Cl)Cl [Compound 5, 2,2,2-Trichloro-N-[1-((6-chloropyridin-3-yl)methyl)pyridin-2(1H)-ylidene]acetamide]	95%	100%	75%	
O=C(N=c1ccccn1Cc1cnc(Cl)nc1)C(F)(F)F [Compound 6, N-[1-((2-Chloropyrimidin-5-yl)methyl)pyridin-2(1H)-ylidene]-2,2,2-trifluoroacetamide]	100%	100%	100%	
O=C(N=c1ccccn1Cc1ccc(Cl)nc1)C(F)(F)C(F)(F)F [Compound 7, N-[1-((6-Chloropyridin-3-yl)methyl)pyridin-2(1H)-ylidene]-2,2,3,3,3-pentafluoropropanamide]	100%	100%	100%	
O=C(N=c1ccccn1Cc1ccc(Cl)nc1)C(F)F [Compound 8, N-[1-((6-Chloropyridin-3-yl)methyl)pyridin-2(1H)-ylidene]-2,2-difluoroacetamide]	100%	100%	100%	
O=C(N=c1ccccn1Cc1ccc(F)nc1)C(F)(F)F [Compound 19, N-[1-((6-fluoropyridin-3-yl)methyl)pyridin-2(1H)-ylidene]-2,2,2-trifluoroacetamide]	100%	100%	100%	Mortality rate [4, 10]: 100%; Mortality rate [4, 11]: 93%
N#Cc1nn(-c2c(Cl)cc(C(F)(F)F)cc2Cl)c(N)c1[S+]([O-])C(F)(F)F (stereo not shown) [fipronil]				Mortality rate [1, 12]: 70%; Mortality rate [1, 10]: 100%
O=[N+]([O-])NC1=NCCN1Cc1ccc(Cl)nc1 [imidacloprid, reference compound]				Mortality rate [1, 12]: 50%; Mortality rate [1, 10]: 100%; total area percentage of metabolites [3]: 2.55; Mortality rate ([4]; 0.05 mg/seedling, sensitive strain): 100%; Mortality rate ([4]; 0.05 mg/seedling, strain (I) (Kumamoto 2007, resistant strain)): 40%; Mortality rate ([4]; 0.05 mg/seedling, strain (II) (Fukuoka 2005, field-collected)): 60%; mortality at 10 ppm [6]: 4%
